Literature values in patent publication US20150320677A1, “EFFERVESCENT TABLET FORMULATIONS OF DAPOXETINE AND A PDE5 INHIBITOR” (Sanovel Ilac Sanayi Ve Ticaret Anonim Sirketi, priority 2012, published 2015).

Legend:
[1] = in vivo, po
[2] = following oral administration

Compound: Dapoxetine
- binding to plasma proteins [1]: almost completely binding to plasma proteins

Compound: CN1CC(=O)N2[C@H](c3ccc4c(c3)OCO4)c3[nH]c4ccccc4c3C[C@@H]2C1=O [tadalafil, (6R-trans)-6-(1,3-benzodioxol-5-yl)-2,3,6,7,12,12a-hexahydro-2-methyl-pyrazino[1′,2′:1,6]pyrido[3,4-b]indole-1,4-dione]
- onset of action takes (second sentence of b41) [2]: up to 36 hours
